{
  "source": "ChEMBL document CHEMBL4765385",
  "about": "“Synthesis and biological evaluation of β-lapachone-monastrol hybrids as potential anticancer agents” (Eur J Med Chem, 2020)",
  "key": {"[1]": {"target": "NAD(P)H dehydrogenase [quinone] 1 (Homo sapiens, UniProt P15559)", "assay": "Substrate activity at recombinant human C-terminal His-tagged NQO1 (1 to 274 residues) expressed in Escherichia coli assessed as metabolic rate by measuring NADPH oxidation per micromol protein at 10 mmol/L measured at 5 secs interval for 1 min by UV-Visible Spectrophotometric method", "type": "ADME"}, "HepG2 [2]": {"test_system": "HepG2", "assay": "Induction of apoptosis in human HepG2 cells assessed as viable cells at 0.8 uM measured after 24 hrs by Annexin V-FITC/propidium iodide staining based flow cytometry (reference value: 94.73%)", "type": "functional", "conditions": "read-out: Activity"}, "in vitro": {"assay": "in vitro", "conditions": "human, L02 cells and A549 cells"}, "NCI-H596 [3]": {"test_system": "NCI-H596", "assay": "Induction of apoptosis in human NCI-H596 cells assessed as late apoptotic cells at 1.6 uM measured after 24 hrs by Annexin V-FITC/propidium iodide staining based flow cytometry (reference value: 1.91%)", "type": "functional"}, "HepG2 [4]": {"test_system": "HepG2", "assay": "Induction of apoptosis in human HepG2 cells assessed as early apoptotic cells at 0.8 uM measured after 24 hrs by Annexin V-FITC/propidium iodide staining based flow cytometry (reference value: 2.65%)", "type": "functional"}, "HepG2 [5]": {"test_system": "HepG2", "assay": "Induction of apoptosis in human HepG2 cells assessed as late apoptotic cells at 3.2 uM measured after 24 hrs by Annexin V-FITC/propidium iodide staining based flow cytometry (reference value: 2.27%)", "type": "functional"}, "A549 [6]": {"test_system": "A549", "assay": "cells", "conditions": "Homo sapiens, A549, 48 h"}, "HepG2 [7]": {"test_system": "HepG2", "assay": "Induction of apoptosis in human HepG2 cells assessed as necrotic cells at 1.6 uM measured after 24 hrs by Annexin V-FITC/propidium iodide staining based flow cytometry (reference value: 0.35%)", "type": "functional"}, "HepG2 [8]": {"test_system": "HepG2", "assay": "Cell cycle arrest in human HepG2 cells assessed as accumulation at G0/G1 phase at 0.6 uM measured after 24 hrs by propidium iodide staining based flow cytometry analysis (reference value: 46.76%)", "type": "functional"}, "A549 [9]": {"test_system": "A549", "assay": "Antiproliferative activity against human A549 cells measured after 48 hrs in presence of NQO1 inhibitor dicoumarol by MTT assay", "type": "functional, cell-based", "conditions": "A549, 48 h"}, "HepG2 [10]": {"test_system": "HepG2", "assay": "Induction of apoptosis in human HepG2 cells assessed as late apoptotic cells at 0.8 uM measured after 24 hrs by Annexin V-FITC/propidium iodide staining based flow cytometry (reference value: 2.27%)", "type": "functional"}, "HepG2 [11]": {"test_system": "HepG2", "assay": "Induction of apoptosis in human HepG2 cells assessed as necrotic cells at 0.8 uM measured after 24 hrs by Annexin V-FITC/propidium iodide staining based flow cytometry (reference value: 0.35%)", "type": "functional"}, "HepG2 [12]": {"test_system": "HepG2", "assay": "Induction of reactive oxygen species production in human HepG2 cells at 5 uM measured after 5 hrs by DCFH-DA staining based flow cytometry", "type": "functional, cell-based"}, "HepG2 [13]": {"test_system": "HepG2", "assay": "Induction of apoptosis in human HepG2 cells assessed as necrotic cells at 3.2 uM measured after 24 hrs by Annexin V-FITC/propidium iodide staining based flow cytometry (reference value: 0.35%)", "type": "functional"}, "HepG2 [14]": {"test_system": "HepG2", "assay": "Induction of apoptosis in human HepG2 cells assessed as viable cells at 1.6 uM measured after 24 hrs by Annexin V-FITC/propidium iodide staining based flow cytometry (reference value: 94.73%)", "type": "functional", "conditions": "read-out: Activity"}, "HepG2 [15]": {"test_system": "HepG2", "assay": "Induction of apoptosis in human HepG2 cells assessed as viable cells at 3.2 uM measured after 24 hrs by Annexin V-FITC/propidium iodide staining based flow cytometry (reference value: 94.73%)", "type": "functional", "conditions": "read-out: Activity"}, "NCI-H596 [16]": {"test_system": "NCI-H596", "assay": "Antiproliferative activity against human NCI-H596 cells measured after 48 hrs by MTT assay", "type": "functional, cell-based", "conditions": "NCI-H596, 48 h"}, "[17]": {"assay": "Toxicity in human HepG2 cells xenografted BALB/c athymic nude mouse assessed as change in body weight at 20 mg/kg, iv administered at 2 days interval 19 days", "type": "organism-based", "conditions": "in vivo, 456 h, time 19 day"}, "NCI-H596 [18]": {"test_system": "NCI-H596", "assay": "Induction of apoptosis in human NCI-H596 cells assessed as early apoptotic cells at 1.6 uM measured after 24 hrs by Annexin V-FITC/propidium iodide staining based flow cytometry (reference value: 2.28%)", "type": "functional"}, "L02": {"test_system": "L02", "assay": "Cytotoxicity against human L02 cells measured after 48 hrs by MTT assay", "type": "cell-based", "conditions": "L02, 48 h"}, "HepG2 [19]": {"test_system": "HepG2", "assay": "Induction of apoptosis in human HepG2 cells assessed as early apoptotic cells at 3.2 uM measured after 24 hrs by Annexin V-FITC/propidium iodide staining based flow cytometry (reference value: 2.65%)", "type": "functional"}, "NCI-H596 [20]": {"test_system": "NCI-H596", "assay": "Induction of apoptosis in human NCI-H596 cells assessed as viable cells at 1.6 uM measured after 24 hrs by Annexin V-FITC/propidium iodide staining based flow cytometry (reference value: 95.17%)", "type": "functional", "conditions": "read-out: Activity"}, "HepG2 [21]": {"test_system": "HepG2", "assay": "Induction of apoptosis in human HepG2 cells assessed as late apoptotic cells at 1.6 uM measured after 24 hrs by Annexin V-FITC/propidium iodide staining based flow cytometry (reference value: 2.27%)", "type": "functional"}, "HepG2 [22]": {"test_system": "HepG2", "assay": "Antiproliferative activity against human HepG2 cells measured after 48 hrs by MTT assay", "conditions": "HepG2, 48 h"}, "NCI-H596 [23]": {"test_system": "NCI-H596", "assay": "Induction of reactive oxygen species production in human NCI-H596 cells at 5 uM measured after 5 hrs by DCFH-DA staining based flow cytometry", "type": "functional, cell-based"}, "HepG2 [24]": {"test_system": "HepG2", "assay": "Cell cycle arrest in human HepG2 cells assessed as accumulation at G0/G1 phase at 2.4 uM measured after 24 hrs by propidium iodide staining based flow cytometry analysis (reference value: 46.76%)", "type": "functional"}, "HepG2 [25]": {"test_system": "HepG2", "assay": "Cell cycle arrest in human HepG2 cells assessed as accumulation at G0/G1 phase at 1.2 uM measured after 24 hrs by propidium iodide staining based flow cytometry analysis (reference value: 46.76%)", "type": "functional"}, "HepG2 [26]": {"test_system": "HepG2", "assay": "Induction of apoptosis in human HepG2 cells assessed as early apoptotic cells at 1.6 uM measured after 24 hrs by Annexin V-FITC/propidium iodide staining based flow cytometry (reference value: 2.65%)", "type": "functional"}, "NCI-H596 [27]": {"test_system": "NCI-H596", "assay": "Induction of apoptosis in human NCI-H596 cells assessed as necrotic cells at 1.6 uM measured after 24 hrs by Annexin V-FITC/propidium iodide staining based flow cytometry (reference value: 0.64%)", "type": "functional"}, "HepG2 [28]": {"test_system": "HepG2", "assay": "Antitumor activity against human HepG2 cells xenografted in BALB/c athymic nude mouse assessed as tumor growth inhibition at 20 mg/kg, iv administered at 2 days interval 19 days by caliper method relative to control", "type": "functional", "conditions": "456 h, time 19 day, read-out: TGI"}},
  "note": "Calls of active or inactive are those of the source. The calls are words filed in the database; no cut-off is given here.",
  "data": [
    {"compound": "COc1ccc2c(c1)C(=O)C(=O)C1=C2NC(=S)NC1c1cccc(O)c1", "note": "(stereo not given)", "values": [
      {"measurement": "Drug metabolism", "setting": "[1]", "result": "1530 micromol/min/micromol protein"},
      {"measurement": "viability at 0.8 µM", "setting": "HepG2 [2]", "result": 83.7, "unit": "%"},
      {"measurement": "selectivity ratio", "setting": "in vitro", "result": 29.1},
      {"measurement": "Activity", "setting": "NCI-H596 [3]", "result": 4.81, "unit": "%"},
      {"measurement": "Activity", "setting": "HepG2 [4]", "result": 7.21, "unit": "%"},
      {"measurement": "Activity", "setting": "HepG2 [5]", "result": 15.3, "unit": "%"},
      {"measurement": "IC50", "setting": "A549 [6]", "result": 0.72, "unit": "µM"},
      {"measurement": "Activity", "setting": "HepG2 [7]", "result": 0.53, "unit": "%"},
      {"measurement": "Activity", "setting": "HepG2 [8]", "result": 48.54, "unit": "%"},
      {"measurement": "IC50", "setting": "A549 [9]", "result": 4.55, "unit": "µM"},
      {"measurement": "Activity", "setting": "HepG2 [10]", "result": 8.52, "unit": "%"},
      {"measurement": "Activity", "setting": "HepG2 [11]", "result": 0.52, "unit": "%"},
      {"measurement": "Activity", "setting": "HepG2 [12]", "result": "Active"},
      {"measurement": "Activity", "setting": "HepG2 [13]", "result": 0.95, "unit": "%"},
      {"measurement": "viability at 1.6 µM", "setting": "HepG2 [14]", "result": 78.1, "unit": "%"},
      {"measurement": "viability at 3.2 µM", "setting": "HepG2 [15]", "result": 71.1, "unit": "%"},
      {"measurement": "IC50", "setting": "NCI-H596 [16]", "result": 7.07, "unit": "µM"},
      {"measurement": "Activity", "setting": "[17]", "result": "Non-Toxic"},
      {"measurement": "Activity", "setting": "NCI-H596 [18]", "result": 4.22, "unit": "%"},
      {"measurement": "IC50", "setting": "L02", "result": 21, "unit": "µM"},
      {"measurement": "Activity", "setting": "HepG2 [19]", "result": 12.67, "unit": "%"},
      {"measurement": "viability at 1.6 µM", "setting": "NCI-H596 [20]", "result": 90.8, "unit": "%"},
      {"measurement": "Activity", "setting": "HepG2 [21]", "result": 11.48, "unit": "%"},
      {"measurement": "IC50", "setting": "HepG2 [22]", "result": 1.6, "unit": "µM"},
      {"measurement": "Activity", "setting": "NCI-H596 [23]", "result": "Active"},
      {"measurement": "Activity", "setting": "HepG2 [24]", "result": 53, "unit": "%"},
      {"measurement": "Activity", "setting": "HepG2 [25]", "result": 49.6, "unit": "%"},
      {"measurement": "Activity", "setting": "HepG2 [26]", "result": 9.89, "unit": "%"},
      {"measurement": "Activity", "setting": "NCI-H596 [27]", "result": 0.14, "unit": "%"},
      {"measurement": "inhibition in vivo at 20 mg/kg", "setting": "HepG2 [28]", "result": 58.1, "unit": "%"}
    ]}
  ]
}
